Key:
[1] = test system: MOLM-13-Cas9-mCherry cells with SHP2 KO; assay: SHP2 CRISPR-Cas9 knockout inhibitor selectivity assay (cell viability); type: cell-based; conditions: MOLM-13-Cas9-mCherry SHP2 KO cells, 72 h
Method: Finally, we evaluated the selectivity of our top two compounds, #01 and #02, on MOLM-13 AML cells in which SHP2 was depleted using CRISPR-Cas9 knock-out (KO). High-efficiency Cas9-editing MOLM-13 cells were generated by transducingMOLM-13 cells with a Cas9 lentiviral construct. Stable clones were tested for editing efficiency by performing TIDE analysis (45), and these MOLM13-Cas9 cells were transduced with a lentiviral construct containing an AAVS1 single guide RNA (sgRNA) and an mCherry reporter for bulk-sorting of cells with successful AAVS1 editing. SHP2 KO was achieved by transducing MOLM-13-Cas9-mCherry cells with a lentivirus containing SHP2 dual sgRNAs, resulting in ˜80% reduction of SHP2 protein levels (FIG. 3G). #01, #02, and the SHP2 allosteric inhibitor SHP099 were tested in parallel on regular MOLM-13 cells (expressing WT SHP2) and MOLM-13-Cas9-mCherry cells with SHP2 KO. Cells were treated with inhibitors at various concentrations (ranging from […] to 58 nM) or vehicle control (DMSO) for 72 h, before cell viability was assessed.
High-efficiency Cas9-editing MOLM-13 cells were generated by transducing MOLM-13 cells with the pLenti-Cas9-blasticidin construct (Addgene plasmid #52962) and selecting single stable clones using flow-sorting. Clones were then tested for editing efficiency by performing TIDE analysis (45). These MOLM13-Cas9 cells were then transduced with a lentiviral construct containing an AAVS sgRNA and an mCherry reporter out of frame and downstream of an AAVS sgRNA targeting site. […]
For SHP2 KO, dual sgRNAs targeting SHP2 were cloned in the pLentiGuide puro vector (Addgene plasmid #52963) using a published protocol (50). […] SHP2 KO was evaluated by immunoblotting. […] For SHP2 KO, MOLM-13-Cas9-mCherry cells were seeded in nontreated 6-well-plates ([…] in 2.5 mL), with cell numbers determined by trypan blue using the Countess Cell counter (Thermo Scientific). […] Cell viability was assessed using the ATP-depletion assay CellTiter-Glo® (Promega) as described above, and data were analyzed using GraphPad Prism software.

[2] = biological target: SHP2-E76K (Homo sapiens (Human), UniProt Q06124, E76K); assay: Michaelis-Menten kinetics and mode of inhibition; type: biochemical
Method: Using nonlinear regression, initial rates at various inhibitor and substrate concentrations were fitted to the Michaelis-Menten equations for competitive, noncompetitive, uncompetitive, and mixed inhibition. Fitting models were then compared using Akaike's Information Criterion (AIC), and inhibition mode probabilities were calculated from the differences between the corresponding second-order corrected AIC scores.
#02 was tested with SHP2-E76K using a similar assay format as described above. #02 or vehicle (DMSO) were spotted in triplicate into a black Greiner FLUOTRAC™ 200 384-well microplate (#781076, Greiner) using an Echo 555 Liquid Handler (Labcyte, Inc., San Jose, CA). SHP2-E76K working solution was prepared and dispensed as described above and incubated with inhibitor for 20 min at RT. DiFMUP working solutions at 5×final concentration were prepared in 50 mM Bis-Tris pH 6.0, 50 mMNaCl, and 0.01% Tween 20. […] Fluorescence intensity was measured in kinetic mode as described above. The initial rates were determined from the linear progression curves of each SHP2-E76K reaction. […] For a comparison of the fitting results, the second-order corrected Akaike's Information Criterion (AICc) was calculated using equation 1, where N is the number of data points, SS the absolute sum of squares, and K the number of parameters fit by nonlinear regression plus 1.

[3] = biological target: SHP2cat (Homo sapiens (Human), UniProt Q06124); assay: Mass spectrometry test for inhibitor:protein adducts; conditions: SHP2cat 5 μM, inhibitor 100 μM, 1, 5, 20, 60 min, trypsin proteolysis, MS
Method: Additionally, we used mass spectrometry to test whether inhibitor: protein adducts are formed. Specifically, we incubated SHP2cat (5 μM) with #02 (100 μM) in assay buffer for various times (1, 5, 20, and 60 min) before trypsin proteolysis and subsequent mass spectrometry analysis.

[4] = test system: TNBC cells (BT-549 and MDA-MB-468); assay: 11-day colony formation assay; type: cell-based; conditions: 5, 10, or 20 μM, 11 days
Method: Next, we performed an 11-day colony formation assay with TNBC cells treated with #02 or SHP099 at 5, 10, or 20 μM (FIG. 3D).
MDA-MB-468 and […] triple-negative breast cancer cells were maintained in DMEM+10% FBS supplemented with 1× Penicillin-Streptomycin/L-Glutamine (Omega Scientific). 1.5K cells (in […]) were seeded per well of a standard 24-well tissue culture plate (Falcon) and allowed to adhere for 24 h, before the addition of drug(s) as described. After a further 96 h, media was replaced with fresh media containing the same test compounds and concentrations. After 11 days, media was removed and cells stained with 0.5% Crystal Violet (in 20% methanol) for 20 min with agitation @ 80 rpm. Stain was removed and plates with stained cells were washed by being submerged in excess deionized water and allowed to air dry overnight before imaging.

Sequence of SHP2-E76K (Q06124 whole entry E76K): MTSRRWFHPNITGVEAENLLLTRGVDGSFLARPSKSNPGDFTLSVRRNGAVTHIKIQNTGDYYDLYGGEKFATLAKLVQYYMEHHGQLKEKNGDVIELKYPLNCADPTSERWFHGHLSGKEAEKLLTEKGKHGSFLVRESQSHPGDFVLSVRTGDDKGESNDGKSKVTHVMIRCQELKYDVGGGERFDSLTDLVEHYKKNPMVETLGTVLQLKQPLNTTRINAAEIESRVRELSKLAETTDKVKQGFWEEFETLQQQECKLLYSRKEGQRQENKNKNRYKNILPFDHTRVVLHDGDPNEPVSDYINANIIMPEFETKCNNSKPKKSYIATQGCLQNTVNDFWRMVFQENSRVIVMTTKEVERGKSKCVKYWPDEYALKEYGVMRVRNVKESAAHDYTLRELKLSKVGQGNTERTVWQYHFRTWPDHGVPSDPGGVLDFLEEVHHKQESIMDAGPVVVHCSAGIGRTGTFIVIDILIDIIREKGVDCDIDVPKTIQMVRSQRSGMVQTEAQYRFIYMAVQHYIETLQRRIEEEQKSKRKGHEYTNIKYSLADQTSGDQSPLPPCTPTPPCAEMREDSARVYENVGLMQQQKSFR
Sequence of SHP2cat (Q06124 248-527): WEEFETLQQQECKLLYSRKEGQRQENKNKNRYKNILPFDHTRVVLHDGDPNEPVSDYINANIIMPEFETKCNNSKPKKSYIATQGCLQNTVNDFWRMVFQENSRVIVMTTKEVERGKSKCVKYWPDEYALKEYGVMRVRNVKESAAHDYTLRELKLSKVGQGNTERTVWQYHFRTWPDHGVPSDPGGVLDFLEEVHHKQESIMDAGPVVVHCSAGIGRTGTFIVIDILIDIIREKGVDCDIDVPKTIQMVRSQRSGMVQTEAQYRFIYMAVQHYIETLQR

Row | SMILES | effect on viability of SHP2 KO cells [1] | mode of inhibition ([2]; AIC model comparison) | Ki ([2]; DiFMUP substrate, read-out: inhibition constant (Ki) for noncompetitive inhibition) | inhibitor:protein adduct formation [3] | effect on colony formation [4]
1 | Nc1ccc(NC(=O)c2cc(-c3ccc(/C=C4\Sc5ccccc5C4=O)o3)ccc2O)cc1 [#01, (Z)—N-(4-Aminophenyl)-2-hydroxy-5-(5-((3-oxobenzo[b]thiophen-2(3H)-ylidene)methyl)furan-2-yl)benzamide] | either no effect, or a greatly reduced effect | – | – | – | –
2 | O=C(Nc1ccccc1)c1cc(-c2ccc(/C=C3\Sc4ccccc4C3=O)o2)ccc1O [#02, (Z)-2-hydroxy-5-(5-((3-oxobenzo[b]thiophen-2(3H)-ylidene)methyl)furan-2-yl)-N-phenylbenzamide] | either no effect, or a greatly reduced effect | noncompetitive or mixed inhibition mechanism | 1800 nM | no adduct formation with the inhibitor was found | colonies were undetectable

— patent US20250026741A1, “INHIBITORS OF THE ONCOGENIC SHP2 PHOSPHATASE AND USES THEREOF” (Sanford Burnham Prebys Medical Discovery Institute, priority 2021, published 2025)
